{
  "source": "ChEMBL document CHEMBL3232796",
  "about": "“Synthesis and carbonic anhydrase I, II, IX and XII inhibition studies of 4-N,N-disubstituted sulfanilamides incorporating 4,4,4-trifluoro-3-oxo-but-1-enyl, phenacylthiourea and imidazol-2(3H)-one/thione moieties” (Bioorg Med Chem Lett, 2014)",
  "molecular_target": "Carbonic anhydrase 9 (Homo sapiens, UniProt Q16790)",
  "description": "Inhibition of human recombinant transmembrane tumor associated carbonic anhydrase-9 incubated for 15 mins prior to testing by stopped-flow CO2 hydrase assay",
  "data": [
    {"smiles": "NS(=O)(=O)c1ccc(N(/C=C/C(=O)C(F)(F)F)Cc2ccccc2)cc1", "values": [
      {"measurement": "Ki", "value": 39, "unit": "nM"}
    ]},
    {"smiles": "NS(=O)(=O)c1ccc(N(/C=C/C(=O)C(F)(F)F)Cc2ccc(Cl)cc2)cc1", "values": [
      {"measurement": "Ki", "value": 33, "unit": "nM"}
    ]},
    {"smiles": "NS(=O)(=O)c1ccc(N(/C=C/C(=O)C(F)(F)F)CC(=O)c2ccccc2)cc1", "values": [
      {"measurement": "Ki", "value": 9.5, "unit": "nM"}
    ]},
    {"smiles": "NS(=O)(=O)c1ccc(N(/C=C/C(=O)C(F)(F)F)CC(=O)c2ccc(Cl)cc2)cc1", "values": [
      {"measurement": "Ki", "value": 17, "unit": "nM"}
    ]},
    {"smiles": "NS(=O)(=O)c1ccc(N(/C=C/C(=O)C(F)(F)F)CC(=O)c2ccc(F)cc2)cc1", "values": [
      {"measurement": "Ki", "value": 13, "unit": "nM"}
    ]},
    {"smiles": "Cc1ccc(C(=O)CN(/C=C/C(=O)C(F)(F)F)c2ccc(S(N)(=O)=O)cc2)cc1", "values": [
      {"measurement": "Ki", "value": 18, "unit": "nM"}
    ]},
    {"smiles": "CCOC(=O)NC(=S)N(CC(=O)c1ccc(Cl)cc1)c1ccc(S(N)(=O)=O)cc1", "values": [
      {"measurement": "Ki", "value": 25, "unit": "nM"}
    ]},
    {"smiles": "NS(=O)(=O)c1ccc(-n2cc(-c3ccccc3)[nH]c2=O)cc1", "values": [
      {"measurement": "Ki", "value": 34, "unit": "nM"}
    ]},
    {"smiles": "NS(=O)(=O)c1ccc(-n2cc(-c3ccc(F)cc3)[nH]c2=O)cc1", "values": [
      {"measurement": "Ki", "value": 25, "unit": "nM"}
    ]},
    {"smiles": "NS(=O)(=O)c1ccc(-n2cc(-c3ccccc3)[nH]c2=S)cc1", "values": [
      {"measurement": "Ki", "value": 13, "unit": "nM"}
    ]},
    {"smiles": "NS(=O)(=O)c1ccc(-n2cc(-c3ccc(F)cc3)[nH]c2=S)cc1", "values": [
      {"measurement": "Ki", "value": 37, "unit": "nM"}
    ]}
  ]
}
